Experimental findings from article PMC5812785 (Nature chemical biology, 2018) are described below.

SMILES strings stand for the structures.

Assay [1] deals with TIR1 (Arabidopsis thaliana, UniProt Q38825+Q570C0). The class given is binding.
Assay [2] concerns the target ccvTIR1 (TIR1^F79G) (Arabidopsis thaliana, UniProt Q38825+Q570C0, Q570C0:F79G). Type of assay: binding.

Sequence of ccvTIR1 (TIR1^F79G) (Q570C0 whole entry F79G, other chains not shown): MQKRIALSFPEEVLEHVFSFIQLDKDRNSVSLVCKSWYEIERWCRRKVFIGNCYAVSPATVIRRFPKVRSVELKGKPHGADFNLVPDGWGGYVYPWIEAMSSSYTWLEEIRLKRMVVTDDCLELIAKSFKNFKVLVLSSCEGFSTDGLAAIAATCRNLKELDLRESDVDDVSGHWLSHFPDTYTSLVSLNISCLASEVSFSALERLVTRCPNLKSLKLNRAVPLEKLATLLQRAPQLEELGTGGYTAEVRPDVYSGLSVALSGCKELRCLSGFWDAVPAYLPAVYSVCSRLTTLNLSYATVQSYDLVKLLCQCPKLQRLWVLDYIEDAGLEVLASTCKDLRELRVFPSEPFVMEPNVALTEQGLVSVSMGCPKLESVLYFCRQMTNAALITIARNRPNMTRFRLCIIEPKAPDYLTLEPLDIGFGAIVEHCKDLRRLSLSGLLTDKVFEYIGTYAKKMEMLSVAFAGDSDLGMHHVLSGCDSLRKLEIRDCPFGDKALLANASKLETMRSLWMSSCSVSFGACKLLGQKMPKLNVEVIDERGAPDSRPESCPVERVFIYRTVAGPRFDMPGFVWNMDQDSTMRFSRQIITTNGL
Sequence of TIR1 (Q570C0 whole entry, other chains not shown): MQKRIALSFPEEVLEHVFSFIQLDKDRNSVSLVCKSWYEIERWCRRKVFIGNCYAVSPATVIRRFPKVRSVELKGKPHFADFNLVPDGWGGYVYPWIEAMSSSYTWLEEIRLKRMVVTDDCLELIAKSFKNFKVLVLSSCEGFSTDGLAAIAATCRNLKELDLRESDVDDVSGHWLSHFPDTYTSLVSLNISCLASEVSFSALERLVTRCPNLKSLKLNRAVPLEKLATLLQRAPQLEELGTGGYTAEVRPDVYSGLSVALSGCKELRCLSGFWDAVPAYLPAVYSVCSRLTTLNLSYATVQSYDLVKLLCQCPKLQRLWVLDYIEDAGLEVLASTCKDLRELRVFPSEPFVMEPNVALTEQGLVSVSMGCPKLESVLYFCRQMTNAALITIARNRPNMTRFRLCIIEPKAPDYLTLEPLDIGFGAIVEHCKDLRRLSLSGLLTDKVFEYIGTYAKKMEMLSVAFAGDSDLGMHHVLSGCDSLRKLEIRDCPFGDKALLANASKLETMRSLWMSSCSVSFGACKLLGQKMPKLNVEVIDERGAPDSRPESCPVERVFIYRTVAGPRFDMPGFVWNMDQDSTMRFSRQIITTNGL

For orientation: EC50 means the concentration that produces a half-maximal response. Read a high EC50 as a less potent agent. Consider `O=C(O)Cc1c[nH]c2ccccc12` [IAA, indole-3-acetic acid], for which the response in assay [1] was half-maximal at 11.5 ± 1.23 µM (EC50).

In assay [2], `COc1cccc(-c2ccc3[nH]cc(CC(=O)O)c3c2)c1` [compound 1, 5-(3-methoxyphenyl)indole-3-acetic acid] showed an EC50 of 3.98 ± 0.6 µM.
